Consider seven molecules from PubChem BioAssay AID336 (DTP/NCI, 2004).

Several values for one entry are separate records, joined by “and”; a condition that tells them apart may be missing. Equal values may be shown once. Inconclusive results and toxic doses are left out. *1 amine or outer side, *2 acyl side, *3 side chain or, on linkers, in order; H or OH if unused. Where a SMILES comes first, the peptide text is derived from it. Bridges are numbered along the chain shown (N, C = ends). Roman numbers before positions name the chains, in order. [ ]: non-standard residue; d: D form. Actinocin(9to1) = Cc1c2oc3c(C)ccc(C(=O)[*:1])c3nc-2c(C(=O)[*:2])c(N)c1=O; aThr = C[C@H](O)[C@H](N)C(=O)O; NMeV = CN[C@H](C(=O)O)C(C)C; Sar = CNCC(=O)O

For the assay, the system named is BDF1 mice, P388/VCR leukemia ip, median survival T/C. Description: NCI In Vivo Anticancer Drug Screen. Data for tumor model P388 Leukemia resistant to Vincristine; NSC 67574 (intraperitoneal) in B6D2F1 (BDF1) mice. Conditions: endpoint: median survival time, higher = longer survival. As to the method:
The antitumor activity of compounds was measured in mice bearing transplantable tumors. Survival or tumor size were measured and the results are expressed as the measurement made in the treated group (T) divided by the measurement made in the vehicle treated control group (C). The tumor model used in this assay is P388 Leukemia resistant to Vincristine; NSC 67574 (intraperitoneal) in B6D2F1 (BDF1) mice

[1] abbreviates: dose: 8.0 mg/kg/injection, schedule: Q01DX010 (ip), vehicle: saline.

Turning to `Cc1c2oc3c(C)ccc(C(=O)N[C@@H]4C(=O)N[C@H](C(C)C)C(=O)N5CCC[C@H]5C(=O)N(C)CC(=O)N(C)[C@@H](C(C)C)C(=O)O[C@H]4C)c3nc-2c(C(=O)N[C@@H]2C(=O)N[C@H](C(C)C)C(=O)N3CCC[C@H]3C(=O)N(C)CC(=O)N(C)[C@@H](C(C)C)C(=O)O[C@H]2C)c(N)c1=O` (I: [aThr][dV]P[Sar][NMeV] / II: [aThr][dV]P[Sar][NMeV]; ester I:1-I:C, II:1-II:C; linker I:N-II:N via Actinocin(9to1)), the T/C is, setting by setting: (dose: 12.5 micrograms/kg/injection, schedule: Q01DX010 (ip), vehicle: other) 108 % of control and 112 % of control; (dose: 25.0 micrograms/kg/injection, schedule: Q01DX010 (ip), vehicle: other) 124 % of control; (dose: 108.0 micrograms/kg/injection, schedule: Q04DX003 (ip), vehicle: saline + alcohol) 103 % of control; (dose: 180.0 micrograms/kg/injection, schedule: Q04DX003 (ip), vehicle: saline + alcohol) 110 % of control; (dose: 300.0 micrograms/kg/injection, schedule: Q04DX003 (ip), vehicle: saline + alcohol) 106 % of control; (dose: 500.0 micrograms/kg/injection, schedule: Q04DX003 (ip), vehicle: saline + alcohol) 93 % of control.
Regarding `Nc1cc(C(=O)Nc2ccc(C3=NCCN3)cc2)cc(C(=O)Nc2ccc(C3=NCCN3)cc2)c1`, the T/C (dose: 32.0 mg/kg/injection, schedule: Q01DX010 (ip), vehicle: saline) is 156 % of control and the T/C (dose: 64.0 mg/kg/injection, schedule: Q01DX010 (ip), vehicle: saline) is 165 % of control.
With `COC(=O)C[C@](O)(CCCC(C)(C)O)C(=O)O[C@@H]1C(OC)=C[C@]23CCCN2CCc2cc4c(cc2[C@H]13)OCO4`, the T/C is 100 % of control (dose: 0.72 mg/kg/injection, schedule: Q04DX003 (ip), vehicle: acid diluted with saline); 100 % of control (dose: 1.2 mg/kg/injection, schedule: Q04DX003 (ip), vehicle: acid diluted with saline); 98 % of control (dose: 2.0 mg/kg/injection, schedule: Q04DX003 (ip), vehicle: acid diluted with saline); 97 % of control (dose: 3.33 mg/kg/injection, schedule: Q04DX003 (ip), vehicle: acid diluted with saline).
With `CCN(CC)CCNc1ccc(C)c2sc3ccccc3c(=O)c12`, the T/C is, setting by setting: (dose: 50.0 mg/kg/injection, schedule: Q01DX010 (ip), vehicle: saline) 159 % of control and 172 % of control; (dose: 100.0 mg/kg/injection, schedule: Q01DX010 (ip), vehicle: saline) 100 % of control.
As for `Nc1nc(=S)c2ncn(C3OC(CO)C(O)C3O)c2[nH]1` (stereo not drawn), the T/C is, setting by setting: (dose: 0.5 mg/kg/injection, schedule: Q01DX010 (ip), vehicle: saline) 92 % of control; (dose: 1.0 mg/kg/injection, schedule: Q01DX010 (ip), vehicle: saline) 107 % of control; (dose: 2.0 mg/kg/injection, schedule: Q01DX010 (ip), vehicle: saline) 155 % of control; (dose: 4.0 mg/kg/injection, schedule: Q01DX010 (ip), vehicle: saline) 110 % of control; under setting [1], 105 % of control; (dose: 16.0 mg/kg/injection, schedule: Q01DX010 (ip), vehicle: saline) 100 % of control.
As to `CCCNC(=NC)c1ccc(NC(=O)c2ccc(C(=O)Nc3ccc(C(=NC)NCCC)cc3)cc2)cc1`, the T/C is 113 % of control (dose: 5.2 mg/kg/injection, schedule: Q01DX010 (ip), vehicle: saline); 113 % of control under setting [1]; 118 % of control (dose: 12.0 mg/kg/injection, schedule: Q01DX010 (ip), vehicle: saline); 100 % of control (dose: 18.0 mg/kg/injection, schedule: Q01DX010 (ip), vehicle: saline).
Take `S=P(N1CCOCC1)(N1CC1)N1CC1`: the T/C is, setting by setting: (dose: 2.5 mg/kg/injection, schedule: Q01DX010 (ip), vehicle: saline) 104 % of control and 109 % of control; (dose: 5.0 mg/kg/injection, schedule: Q01DX010 (ip), vehicle: saline) 100 % of control and 109 % of control; (dose: 10.0 mg/kg/injection, schedule: Q01DX010 (ip), vehicle: saline) 100 % of control and 122 % of control; (dose: 20.0 mg/kg/injection, schedule: Q01DX010 (ip), vehicle: saline) 86 % of control and 90 % of control.
